Measured values: US20080155704A1, “Methods and Compositions for Determining in vivo Activity of BiP” (King's College London, priority 2006, published 2008)

Tests used:
Type in all cases: cell-based, human
IL-10 = IL-10 production by dendritic cell cultures (ELISA); settings: for IL-10 production: n=8
Procedure: (§1) Supernatant samples were collected on day 1, 3 and 7 for iDC and from the final cultures of the T cells taken from the iDC/mDC-T cell allogeneic test system and set up with autologous cells to determine if there was any regulatory activity. The samples were aliquoted and frozen at −70° C. until required. Production IL-10 was quantified by ELISA using paired antibodies and recombinant standards (PharMingen, Oxford, UK) according to the recommendations of the manufacturer. In addition some were analysed by cytometric bead assay (BD, Oxford, UK) according to the manufacturers instructions.
(§2) To neutralize IL-10 within the cultures anti-IL-10 antibody (ATCC, Rockville, USA) was added at day 0 (5 μg/ml) to GM-CSF and IL-4 treated cultures in the presence and absence of BiP (20 μg/ml). Two specific cell-permeable inhibitors of the MAPK intracellular signalling pathways were used. SB203580 (SB)(10 μM)((Calbiochem, Darmstadt, Germany) inhibits p38 MAPK, and PD98059 (PD) (10 μM)(Calbiochem), an inhibitor of MAPK extracellular signal regulated kinase (ERK), were tested. MO were pre-treated with the inhibitors for 2 h before adding GM-CSF and IL-4 in the presence or absence of BiP.
as §1, with “of the pro-inflammatory cytokine, TNFα, and the anti-inflammatory cytokine, IL-10,” for “IL-10”

T cells = assay: Regulatory markers on T cells co-cultured with BiP-treated dendritic cells
Procedure: FIG. 11: Co-culture of T cells with BiP-treated dendritic cells (DC) upregulates regulatory markers. […] Mean ±standard deviation of three experiments is shown.
Intracellular staining was carried out with fixed cells incubated with 1% paraformaldehyde in IF buffer for 5 minutes at room temperature. The cells were washed twice with IF buffer containing 0.3% saponin for permeabilization. 0.3% saponin was then present in all IF buffer used thereafter. CTLA-4/CD152 (BD), FoxP3 (eBioscience) and indolamine 2,3-dioxygenase (Santa Cruz) and cytokines required intracellular staining. Antibodies were added at the pre-determined optimal concentration for 20 mins and then the cells were washed twice with IF buffer and analysed. Isotype controls, IgG1 and IgG2a (Becton Dickinson, Oxford, UK) were used in parallel. Cells were analysed on a FACScan cytometer using Cellquest software (Becton Dickinson, Oxford, UK).
T cells were purified from peripheral blood mononuclear cells and set up in culture with either allogeneic or autologous dendritic cells, which had been washed and irradiated, at a ratio of 10 T cells:1 DC. The cells were co-cultured in a 24 well plate in 1 ml/well, in RPMI 1640 supplemented with 10% foetal calf serum, for 4 days then the T cells were removed and washed before being investigated for the presence of T regulatory cells (see below)
Immunofluorescent staining was performed, as described previously (39), on DC harvested at day 7, T cells after 4 days co-culture with DC. Saturating concentrations of fluorescein isothiocyanate (FITC)-, phycoerythrin (PE) or peridium chlorophyll (Per-CP)-conjugated mAb were added recognizing CD14, CD86, CD80, HLA-DR, CD11c, CD1a, CD83, CD85j, IL-10 receptor; purity of the negatively selected MO and T cells was checked using CD3, CD4, CD14, CD20 and CD57 (all from Becton Dickinson/PharMingen (BD), Oxford, UK). Intracellular staining was carried out following fixation of cells with 1% paraformaldehyde for 5 minutes. Cells were then washed with immunofluorescence buffer (PBS/0.1% BSA/0.05% azide) containing 0.3% saponin. 0.3% saponin was then present in all solutions thereafter. CD152/CTLA-4 (BD, Oxford UK) and IDO (Santa Cruz, Autogen Bioclear, UK) were intracellular stains. Isotype controls, IgG1 and IgG2a (BD, Oxford, UK) were used in parallel. Cells were analysed on a FACScan/FACScalibur cytometers using Cellquest software (BD, Oxford, UK).

IL-8 = IL-8 in supernatants of PBMC from rheumatoid arthritis patients (MSD multicytokine array); settings: PBMC of RA patients on methotrexate, BiP 20 μg/ml, 96 h, 16 paired samples, p=0.0001
Procedure: Peripheral blood mononuclear cells (PBMC) were separated from heparinised blood taken from patients with rheumatoid arthritis being treated with methotrexate. PBMC were either left unstimulated or stimulated with BiP (20 μg/ml). Supernatants were taken at 96 h, aliquoted and stored at −80° C. until required.
Supernatants from unstimulated or BiP stimulated cultures were analysed in a multicytokine array (MSD). The results from 16 paired samples are shown as median and 95 percent confidence limits.

allogeneic T cells = assay: Allogeneic proliferative response to early BiP treated DC (tritiated thymidine uptake); settings: DC differentiated with BiP 20 μg/ml
Procedure: Allogeneic responses by T cells in culture with irradiated (3,000 rads) early DC (eDC), after only 3d in culture with GM-CSF and IL-4 in the presence or absence of BiP (20 μg/ml) at a ratio of 10:1 PBMC:DC (105:10^4 cells/well). The results are shown as an allogeneic proliferative response (A) following addition of neutralizing anti-IL-10 ( 1/100 dilution) antibody and (B) the pre-treatment (2 h) of monocytes (MO) with p38 inhibitor, SB203580 (SB)(10 μM) or the ERK1/2 inhibitor, PD 98059 (PD)(10 μM), prior to the addition of GM-CSF and IL-4 to the cultures. The proliferation of PBMC to early DC following (C) the addition of BiP 24 h post addition of GM-CSF and IL-4. Proliferation was measured by uptake of tritiated thymidine and recorded as counts per minute (cpm). ELISA was used to detect IL-10 (D) in the culture supernatants and (E) by 7d cultured iDC/iDC(BiP) and fully matured mDC/mDC(BiP) differentiated as described in following 7d culture in GM-CSF and IL-4 with LPS (500 ng/ml) added for the final 2d.
as §2

## BiP: 78 kD endoplasmic reticulum chaperone protein as disclosed in WO 00/21995; recombinant human protein
IL-10; 3d GM-CSF and IL-4 with BiP 20 μg/ml, inhibitors 10 μM, anti-IL-10 added at day 0 (FIG. 13D)
  IL-10 production by early DC(BiP) cultures: significantly more IL-10
IL-10; iDC(BiP), 7d culture
  IL-10 production: 819.1 ± 688 pg/mL
IL-10; mDC(BiP), 7d culture with LPS final 2d
  IL-10 production: 970.1 ± 684 pg/mL
IL-10; versus untreated DC (FIG. 1)
  IL-10 production by BiP-treated DC: significantly more IL-10
T cells; FIG. 11B
  intracellular CTLA-4 in T cells in contact with mDC(BiP): significant upregulation of intracellular CTLA-4
T cells; after 4d contact with mDC(BiP), n=5
  T cell surface expression for CD4CD25hiCD27hi: 2.5±0.2%
T cells; after contact with BiP treated DC, n=4
  intracellular CTLA-4/CD152 in T cells: 31±12
T cells; after contact with mDC(BiP), n=4
  cell surface CCR4 on T cells: 17.3±2.0%
IL-8
  IL-8 production: significantly less IL-8
Allogeneic T cells
  proliferation of allogeneic T cells stimulated by iDC(BiP) or mDC(BiP): significantly reduced proliferation
